GI50 and TGI data for 21 compounds are collected here from PubChem BioAssay (NCI).

Values joined by “and” are separate entries in the source; they are usually repeats but may differ in a detail not shown here. Identical values can stand only once.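 These data come from cells grown in 96-well plates and exposed to compound for 48 hours at five concentrations. Here, GI50 denotes the concentration required for 50% inhibition of growth. The concentration for full growth arrest is given as TGI.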 Bounds are passed on as bounds.

Holding throughout (assay): NCI tumour cell line growth inhibition, 48 h
Test [1] has as its system SR leukemia.
The subject of test [2] is NCI/ADR-RES ovarian.
Test [3] concerns SK-MEL-28 melanoma.
Test [4] concerns A498 renal.
In test [5] the test system is OVCAR-8 ovarian.
For test [6], the system named is SNB-75 CNS.
For test [7], the system named is SK-MEL-5 melanoma.
Test [8] deals with M14 melanoma.

As for `Cc1cccc(Nc2ncc(-c3ccccc3)o2)c1`, the GI50 in test [1], in test [2], in test [3], in test [4], in test [5] and in test [6] was over 25 µM throughout. Also, the GI50 in test [7] and in test [8] was over 25 µM each time. In addition, the TGI in test [1], in test [2], in test [3], in test [4], in test [5] and in test [6] was over 25 µM throughout. Besides, the TGI in test [7] and in test [8] was over 25 µM in each case.
Regarding `CCN(Cc1c(F)cccc1C(F)(F)F)c1ccc(CO)c(Cl)c1`, the GI50 is 14.5 µM in test [1]; 14.7 µM in test [2]; 13.9 µM in test [3]; under 0.0191 µM in test [4]; 14.6 µM in test [5]; 12.5 µM in test [6]. The GI50 is 7.81 µM in test [7] and 17.4 µM in test [8]. Moreover, the TGI in test [1] worked out at 36.5 µM; in test [2], 32.1 µM; in test [3] it was 27.6 µM; in test [4], 0.0463 µM; in test [5], 31.3 µM; in test [6], 26.4 µM. The TGI in test [7] was found to be 23.2 µM; in test [8], 33.4 µM.
As for `c1ccc2c(c1)CCCc1nnc3nc4ccccc4n3c1-2`, the GI50 in test [1] was 3.16 µM; in test [2] it was 3.32 µM; in test [3], 9.43 µM; in test [4], 16.6 µM; in test [5], 5.02 µM; in test [6], 23 µM. For the same compound, the GI50 is 4.89 µM in test [7] and 3.13 µM in test [8]. Further, the TGI in test [1] was 25.7 µM; in test [2] it was 25.1 µM; in test [3], over 100 µM; in test [4] it was over 100 µM; in test [5] it was 74.1 µM; in test [6], over 100 µM. Further, the TGI in test [7] is over 100 µM; in test [8] it was 25.2 µM.
As for `S=C1NC(c2ccccc2)NC(c2ccccc2)S1` (stereo not drawn), the TGI in test [1], in test [2], in test [3], in test [4], in test [5] and in test [6] was over 100 µM in each case. For the same compound, the TGI in test [7] and in test [8] was over 100 µM in each case.
For `COc1ccc(N2CCN(c3nc(-c4ccccn4)nc4sc5c(c34)CCCCCC5)CC2)cc1`, the GI50 in test [1] is 3.18 µM; in test [2], 4.77 µM; in test [3], over 100 µM; in test [4], 3.3 µM; in test [5], 5.23 µM; in test [6] it was 26.1 µM. In addition, the GI50 in test [7] was 2.85 µM; in test [8] it was 5.4 µM. The TGI in test [1], in test [2], in test [3], in test [4], in test [5] and in test [6] was over 100 µM each time. Further, the TGI in test [7] and in test [8] was over 100 µM throughout.
Turning to `O=C(Nc1ccc([N+](=O)[O-])cc1Cl)c1cc(Cl)ccc1O`, the GI50 is 0.145 µM and 0.134 µM in test [1]; 0.137 µM and 0.231 µM in test [2]; 0.165 µM and 0.243 µM in test [3]; 0.0329 µM and 0.0832 µM in test [4]; 0.147 µM and 0.33 µM in test [5]; 0.155 µM and 0.211 µM in test [6]. Also, the GI50 is 0.0515 µM and 0.116 µM in test [7]; 0.16 µM and 0.318 µM in test [8]. The TGI in test [1] was 0.761 µM; in test [2], 0.536 µM and 1.35 µM; in test [3] it was 2.03 µM and 2.01 µM; in test [4], 0.171 µM and 0.353 µM; in test [5], 0.605 µM; in test [6] it was 2.49 µM and 0.864 µM. Moreover, the TGI in test [7] is 0.15 µM and 0.276 µM; in test [8] it was 0.645 µM and 1.75 µM.
Turning to `O=C(Nc1cccc(Cl)c1)Nc1cc(C(F)(F)F)ccc1Cl`, the GI50 in test [1] is 3.78 µM; in test [2] it was 2.64 µM; in test [3] it was 4.19 µM; in test [4], 2.16 µM; in test [5], 3.16 µM; in test [6] it was 2.29 µM. Also, the GI50 in test [7] was 1.92 µM; in test [8] it was 2.97 µM. Also, the TGI in test [1] turned out to be 38 µM; in test [2] it was 7.12 µM; in test [3], 29.6 µM; in test [4], 6.36 µM; in test [5], 7.75 µM; in test [6], 6.48 µM. For the same compound, the TGI in test [7] amounted to 3.51 µM; in test [8], 9.68 µM.
On to `N/C(=N/O)NOCCC(N)C(=O)O` (stereo not drawn), for which the GI50 in test [1], in test [2], in test [3], in test [4], in test [5] and in test [6] was over 100 µM each time. For the same compound, the GI50 in test [7] and in test [8] was over 100 µM each time. Also, the TGI in test [1], in test [2], in test [3], in test [4], in test [5] and in test [6] was over 100 µM throughout. Also, the TGI in test [7] and in test [8] was over 100 µM in each case.
Regarding `NC(=O)C1CCCN1Cc1ccc2c(c1)OCO2` (stereo not drawn), the TGI in test [1], in test [2], in test [3], in test [4], in test [5] and in test [6] was over 100 µM throughout. Moreover, the TGI in test [7] and in test [8] was over 100 µM throughout.
As to `O=C(Nc1n[nH]c2cc(-c3ccc(F)cc3)ccc12)C1CC1`, the GI50 in test [1] is 2.76 µM; in test [2] it was 5.27 µM; in test [3], 12.3 µM; in test [4], 12.3 µM; in test [5] it was 12.8 µM; in test [6], 11.1 µM. Besides, the GI50 is 5.56 µM in test [7] and 8.6 µM in test [8]. Also, the TGI in test [1] was over 25 µM; in test [2] it was 22.6 µM; in test [3], over 25 µM; in test [4], over 25 µM; in test [5], over 25 µM; in test [6] it was over 25 µM. Moreover, the TGI in test [7] was over 18.1 µM; in test [8], over 25 µM.
As to `Nc1[nH]c(=S)[nH]c(=O)c1N=Nc1c(Br)cc(S(N)(=O)=O)cc1Br`, the TGI in test [1], in test [2], in test [3], in test [4], in test [5] and in test [6] was over 100 µM in each case. The TGI in test [7] and in test [8] was over 100 µM each time.
Consider `Fc1ccc(Nc2ccnc(N3CCN(c4ccnc5cc(Cl)ccc45)CC3)n2)cc1`, for which the GI50 in test [1] was 2.61 µM; in test [2] it was 2.24 µM; in test [3] it was 3.27 µM; in test [4], 1.81 µM; in test [5], 2.16 µM; in test [6] it was 2.43 µM. The GI50 is 1.53 µM in test [7] and 1.89 µM in test [8]. The TGI in test [1] is 8.76 µM; in test [2], 6.41 µM; in test [3], 12.9 µM; in test [4], 9.61 µM; in test [5], 6.12 µM; in test [6] it was over 100 µM. Besides, the TGI in test [7] was 2.96 µM; in test [8] it was 4.25 µM.
For `CCN(CC(O)COc1ccc2c(c1)[n+]([O-])nc(N)[n+]2[O-])C(C)=O` (stereo not drawn), the TGI in test [1], in test [2], in test [3], in test [4], in test [5] and in test [6] was over 100 µM each time. For the same compound, the TGI in test [7] and in test [8] was over 100 µM throughout.
Take `OCC1OC(N2CCN(C3OC(CO)C(O)C(O)C3O)CC2)C(O)C(O)C1O` (stereo not drawn): the TGI in test [1], in test [2], in test [3], in test [4], in test [5] and in test [6] was over 100 µM each time. Further, the TGI in test [7] and in test [8] was over 100 µM in each case.
In the case of `COc1cc2cc(C(=O)Nc3ccccc3)c(N)nc2cc1OC`, the GI50 in test [1] is 33.9 µM; in test [2], 28.4 µM; in test [3], 75.4 µM; in test [4] it was 4.7 µM; in test [5], 33.5 µM; in test [6], 29.2 µM. In addition, the GI50 in test [7] is 22.8 µM; in test [8], 33.1 µM. Moreover, the TGI in test [1] is over 100 µM; in test [2], over 100 µM; in test [3] it was over 100 µM; in test [4] it was 30.9 µM; in test [5], over 100 µM; in test [6] it was over 100 µM. Besides, the TGI in test [7] is 88.8 µM; in test [8] it was over 100 µM.
For the compound `COC(=O)C1(N2CCOCC2)CCC([C@@H](c2ccccc2)C(C)[N+](=O)[O-])C1` (stereo partly drawn), the TGI in test [1] is 60.4 µM; in test [2], over 100 µM; in test [3], over 100 µM; in test [4] it was over 100 µM; in test [5] it was over 100 µM; in test [6], over 100 µM. For the same compound, the TGI in test [7] and in test [8] was over 100 µM each time.
With `COc1ccc(C2CC(=O)Nc3c2c(C)nn3-c2nc3ccccc3[nH]2)cc1OC` (stereo not drawn), the GI50 in test [1] was 3.36 µM; in test [2], 12 µM; in test [3], 4.9 µM; in test [4], 2.01 µM; in test [5], 4.09 µM; in test [6], 3.46 µM. Also, the GI50 is 2.42 µM in test [7] and 3.45 µM in test [8]. The TGI in test [1] was 26.2 µM; in test [2], over 100 µM; in test [3] it was over 100 µM; in test [4], 13.4 µM; in test [5] it was 43.6 µM; in test [6], over 56.1 µM. For the same compound, the TGI in test [7] came out at 6.17 µM; in test [8], 20.4 µM.
`Cc1cc(C(=O)NOCCO)c(Nc2ccc(I)cc2F)n(C)c1=O`: the GI50 is > 10 µM and 29.5 µM in test [1]; over 90.6 µM in test [2]; 0.00227 µM and < 0.01 µM in test [3]; 0.00323 µM and 0.0103 µM in test [4]; over 36.5 µM in test [5]; > 10 µM and 17.1 µM in test [6]. Further, the GI50 is under 0.01 µM in test [7]; 0.00159 µM and < 0.01 µM in test [8]. The TGI in test [1] is over 100 µM; in test [2], over 100 µM; in test [4], 0.0286 µM and 0.0435 µM; in test [5], over 100 µM; in test [6], over 100 µM; in test [7] it was over 100 µM. This compound also registered a TGI in test [8] of 2.89 µM.
Regarding `CN(N=O)N1C(=O)SCC(c2ccccc2)(c2ccccc2)C1=O`, the TGI was over 100 µM in test [1]; over 100 µM in test [2]; over 100 µM in test [3]; over 100 µM in test [4]; 60.2 µM in test [5]; 82.2 µM in test [6]. In addition, the TGI in test [7] and in test [8] was over 100 µM in each case.
With `CN1CCN(CCCn2c3c(sc4ncccc43)c(=O)n3nnc(-c4ccccc4)c23)CC1`, the GI50 in test [1] was 0.241 µM; in test [2] it was 1.95 µM; in test [3], 18 µM; in test [4], 6.7 µM; in test [5] it was 1.88 µM; in test [6] it was 9.85 µM. The results for the GI50 in test [7] and in test [8] were 1.65 µM and 4.67 µM, respectively. Besides, the TGI is 0.603 µM in test [1]; 4.77 µM in test [2]; 32.2 µM in test [3]; 21.3 µM in test [4]; 4.31 µM in test [5]; 23.4 µM in test [6]. The TGI is 3.05 µM in test [7] and 9.5 µM in test [8].
`OCC1OC(n2cnc3cc(Cl)c(Cl)cc32)C(O)C1O` (stereo not drawn): the GI50 was 0.648 µM in test [1]; 18.8 µM in test [2]; 29.3 µM in test [3]; over 47.3 µM in test [4]; 34.7 µM in test [5]; 31.2 µM in test [6]. Also, the GI50 in test [7] was 18.5 µM; in test [8] it was 9.36 µM. Besides, the TGI is 56.6 µM in test [2]; over 100 µM in test [3]; over 67.7 µM in test [4]; over 72.2 µM in test [5]; over 74.2 µM in test [6]; 37.6 µM in test [7]. This compound displayed a TGI in test [8] of 32.5 µM.
